# Assay results taken from article PMC7614683, “A small molecule PI3Kα activator for cardioprotection and neuroregeneration” (Nature, 2023).
# What was measured:
# Assay in all cases: SelectScreen LanthaScreen Binding
# Settings in all cases: 1000 nM
# FGFR1 V561M = FGFR1 V561M (Homo sapiens, UniProt P11362, V561M)
# Procedure: (§1) 133 protein kinases and 7 lipid kinases were counterscreened, with 1938 used at 1 μM, using the Adapta, Lantha and Z-LYTE assays (SelectScreen Kinase Profiling Service; Thermofisher – experimental details of these assays can be found here: https://www.thermofisher.com/uk/en/home/industrial/pharma-biopharma/drug-discovery-development/target-and-lead-identification-and-validation/kinasebiology/kinase-activity-assays.html. The tree represention in KinMap[59] generated courtesy of Cell Signaling Technology, Inc. (www.cellsignal.com). mTORC1 (mTOR/RAPTOR/LST8) protein complex and ATM kinase and substrates were produced as previously described[57],[60]. Screening of 1938 was conducted using SuperSep Phos-Tag 50 μmol/l 100 x 100 x 6.6 mm 17-well (192-18001/199-18011) gels. For ATM assays, 100 nM ATM was incubated for 30 min at 30°C with 5 μM GST-p53 and 1 mM ATP, in the absence or presence of 200 μM 1938 in ATM Kinase Buffer (50 mM HEPES pH 7.5, 100 mM NaCl, 10% glycerol, 2 mM […], 5 mM MgCl2). As a positive control for ATM activation, the same reaction was carried out with 100 nM ATM/5 μM GST-p53/1 mM ATP in the presence of 100 nM Mre11-Rad50-Nbs1 (MRN) complex, a known activator of ATM[61]. For mTORC1 assays, 50 nM mTORC1 complex (mTOR/LST8/RAPTOR) was incubated for 3 h at 30°C with 15 μM 4E-BP1, 10 mM MgCl2 and 250 μM ATP, in the absence or presence of 200 μM 1938. As a ‘positive’ control, a higher concentration (150 nM) of mTORC1 complex (mTOR/LST8/RAPTOR) was incubated for 3 h at 30°C with 15 μM 4E-BP1, 10 mM MgCl2 and 250 μM ATP. Kinase reactions were quenched by addition of SDS-PAGE Loading Buffer (as per manufacturer’s instructions) and freezing at -20°C before being run on the Phos-tag gels at 150 V for 90 min. Gels were then stained using InstantBlue™ Coomassie, and quantified using BioRad Image Lab Software. Kinase assays were carried out in triplicate.
# CDK2/cyclin E1 = CDK2/cyclin E1 (Homo sapiens, UniProt P24941)
# Procedure: as §1
# STK17A (DRAK1) = target: T1, STK17A (DRAK1) (Homo sapiens, UniProt Q9UEE5)
# T1 sequence (Q9UEE5 1-414): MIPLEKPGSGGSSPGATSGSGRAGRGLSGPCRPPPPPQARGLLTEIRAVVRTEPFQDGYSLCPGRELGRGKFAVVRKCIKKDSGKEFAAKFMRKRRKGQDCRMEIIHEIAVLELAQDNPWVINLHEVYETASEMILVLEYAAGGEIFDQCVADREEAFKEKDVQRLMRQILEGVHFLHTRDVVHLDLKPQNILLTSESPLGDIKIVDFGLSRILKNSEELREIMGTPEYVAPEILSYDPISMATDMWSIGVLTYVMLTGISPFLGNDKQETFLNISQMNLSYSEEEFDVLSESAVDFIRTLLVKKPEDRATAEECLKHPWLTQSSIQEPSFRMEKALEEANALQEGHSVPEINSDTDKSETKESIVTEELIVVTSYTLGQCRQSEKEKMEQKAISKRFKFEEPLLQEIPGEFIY
# Procedure: as §1
# RET V804M = RET V804M (Homo sapiens, UniProt P07949, V804M)
# Procedure: as §1
# TNIK = TNIK (Homo sapiens, UniProt Q9UKE5)
# Procedure: as §1
# MAP4K3 (GLK) = target: T2, MAP4K3 (GLK) (Homo sapiens, UniProt Q8IVH8)
# T2 sequence (Q8IVH8 1-894): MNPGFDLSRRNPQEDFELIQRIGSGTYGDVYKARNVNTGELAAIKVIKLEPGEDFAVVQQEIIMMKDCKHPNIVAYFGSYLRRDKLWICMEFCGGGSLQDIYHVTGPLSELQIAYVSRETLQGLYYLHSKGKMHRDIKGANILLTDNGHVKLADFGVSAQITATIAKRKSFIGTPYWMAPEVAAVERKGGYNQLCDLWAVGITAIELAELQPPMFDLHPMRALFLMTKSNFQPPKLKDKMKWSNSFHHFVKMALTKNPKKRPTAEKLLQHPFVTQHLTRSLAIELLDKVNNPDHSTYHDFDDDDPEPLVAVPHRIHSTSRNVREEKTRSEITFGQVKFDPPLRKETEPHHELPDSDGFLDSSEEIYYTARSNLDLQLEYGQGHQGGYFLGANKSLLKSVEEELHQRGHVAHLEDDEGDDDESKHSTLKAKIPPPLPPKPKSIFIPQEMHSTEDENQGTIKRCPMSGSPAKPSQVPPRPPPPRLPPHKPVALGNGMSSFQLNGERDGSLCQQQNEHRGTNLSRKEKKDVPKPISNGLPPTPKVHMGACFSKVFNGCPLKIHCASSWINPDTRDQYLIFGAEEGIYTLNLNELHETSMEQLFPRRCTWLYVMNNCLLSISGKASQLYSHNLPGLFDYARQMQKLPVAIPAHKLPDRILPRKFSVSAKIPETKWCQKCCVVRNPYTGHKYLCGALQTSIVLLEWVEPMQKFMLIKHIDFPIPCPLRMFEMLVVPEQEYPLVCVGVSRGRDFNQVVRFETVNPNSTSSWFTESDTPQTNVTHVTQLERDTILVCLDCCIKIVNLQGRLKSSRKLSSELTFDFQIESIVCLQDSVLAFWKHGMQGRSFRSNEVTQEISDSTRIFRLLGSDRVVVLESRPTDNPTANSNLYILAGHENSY
# Procedure: as §1
# Sequence of FGFR1 V561M (P11362 22-822 V561M): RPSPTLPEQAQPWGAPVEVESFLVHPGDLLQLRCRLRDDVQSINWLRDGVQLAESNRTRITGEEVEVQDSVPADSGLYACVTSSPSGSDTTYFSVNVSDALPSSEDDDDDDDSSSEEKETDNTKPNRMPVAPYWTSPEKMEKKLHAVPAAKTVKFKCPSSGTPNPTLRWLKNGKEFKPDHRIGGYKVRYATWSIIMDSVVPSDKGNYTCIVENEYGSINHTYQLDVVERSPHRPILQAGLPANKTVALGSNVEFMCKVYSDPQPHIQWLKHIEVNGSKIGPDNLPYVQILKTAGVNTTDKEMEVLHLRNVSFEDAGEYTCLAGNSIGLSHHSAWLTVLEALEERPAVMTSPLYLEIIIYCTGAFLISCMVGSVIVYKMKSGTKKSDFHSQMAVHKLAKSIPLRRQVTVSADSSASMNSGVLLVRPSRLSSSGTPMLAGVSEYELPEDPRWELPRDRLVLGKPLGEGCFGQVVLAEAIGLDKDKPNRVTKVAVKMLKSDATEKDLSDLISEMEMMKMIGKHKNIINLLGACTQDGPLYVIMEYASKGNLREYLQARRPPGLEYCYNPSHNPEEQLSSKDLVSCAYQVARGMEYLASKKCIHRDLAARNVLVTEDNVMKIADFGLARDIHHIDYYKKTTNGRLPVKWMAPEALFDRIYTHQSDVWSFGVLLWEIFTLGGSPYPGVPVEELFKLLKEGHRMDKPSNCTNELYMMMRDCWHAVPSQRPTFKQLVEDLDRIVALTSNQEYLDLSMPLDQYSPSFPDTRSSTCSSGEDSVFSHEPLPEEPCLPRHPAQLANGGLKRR
# Sequence of TNIK (Q9UKE5 whole entry): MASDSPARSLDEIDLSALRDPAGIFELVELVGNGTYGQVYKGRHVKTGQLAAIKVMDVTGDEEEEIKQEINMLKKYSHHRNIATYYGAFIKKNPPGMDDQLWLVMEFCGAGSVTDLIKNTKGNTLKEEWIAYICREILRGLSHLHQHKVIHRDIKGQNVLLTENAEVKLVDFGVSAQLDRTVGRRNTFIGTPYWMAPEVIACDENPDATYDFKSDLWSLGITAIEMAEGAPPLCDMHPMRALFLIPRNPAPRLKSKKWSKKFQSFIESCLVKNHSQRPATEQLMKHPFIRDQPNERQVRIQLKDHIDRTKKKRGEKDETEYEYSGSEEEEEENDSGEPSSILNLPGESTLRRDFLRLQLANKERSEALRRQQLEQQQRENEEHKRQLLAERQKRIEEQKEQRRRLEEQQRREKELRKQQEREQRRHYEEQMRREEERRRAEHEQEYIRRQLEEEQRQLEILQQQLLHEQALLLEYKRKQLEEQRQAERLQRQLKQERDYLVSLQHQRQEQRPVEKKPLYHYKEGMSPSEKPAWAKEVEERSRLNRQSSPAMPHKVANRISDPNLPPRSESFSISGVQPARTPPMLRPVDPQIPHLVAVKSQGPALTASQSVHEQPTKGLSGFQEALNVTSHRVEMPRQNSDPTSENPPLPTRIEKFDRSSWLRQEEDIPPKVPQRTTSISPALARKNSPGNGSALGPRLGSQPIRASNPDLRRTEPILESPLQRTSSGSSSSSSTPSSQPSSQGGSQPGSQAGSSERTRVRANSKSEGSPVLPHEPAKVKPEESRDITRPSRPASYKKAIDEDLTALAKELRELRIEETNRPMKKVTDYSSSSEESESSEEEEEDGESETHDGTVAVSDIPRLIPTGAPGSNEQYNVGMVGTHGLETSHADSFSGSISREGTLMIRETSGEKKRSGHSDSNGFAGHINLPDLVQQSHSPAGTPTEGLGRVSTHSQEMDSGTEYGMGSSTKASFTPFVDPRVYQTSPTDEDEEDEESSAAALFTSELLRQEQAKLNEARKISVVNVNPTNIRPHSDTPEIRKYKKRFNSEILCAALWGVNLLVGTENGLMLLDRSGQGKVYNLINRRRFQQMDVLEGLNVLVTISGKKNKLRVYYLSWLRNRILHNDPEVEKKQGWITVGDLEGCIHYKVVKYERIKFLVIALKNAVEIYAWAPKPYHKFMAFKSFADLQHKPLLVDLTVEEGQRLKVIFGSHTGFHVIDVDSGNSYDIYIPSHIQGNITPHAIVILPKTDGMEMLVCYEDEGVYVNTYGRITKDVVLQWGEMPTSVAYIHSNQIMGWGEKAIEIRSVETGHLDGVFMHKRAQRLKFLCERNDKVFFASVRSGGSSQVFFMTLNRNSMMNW
# Sequence of RET V804M (P07949 29-1114 V804M): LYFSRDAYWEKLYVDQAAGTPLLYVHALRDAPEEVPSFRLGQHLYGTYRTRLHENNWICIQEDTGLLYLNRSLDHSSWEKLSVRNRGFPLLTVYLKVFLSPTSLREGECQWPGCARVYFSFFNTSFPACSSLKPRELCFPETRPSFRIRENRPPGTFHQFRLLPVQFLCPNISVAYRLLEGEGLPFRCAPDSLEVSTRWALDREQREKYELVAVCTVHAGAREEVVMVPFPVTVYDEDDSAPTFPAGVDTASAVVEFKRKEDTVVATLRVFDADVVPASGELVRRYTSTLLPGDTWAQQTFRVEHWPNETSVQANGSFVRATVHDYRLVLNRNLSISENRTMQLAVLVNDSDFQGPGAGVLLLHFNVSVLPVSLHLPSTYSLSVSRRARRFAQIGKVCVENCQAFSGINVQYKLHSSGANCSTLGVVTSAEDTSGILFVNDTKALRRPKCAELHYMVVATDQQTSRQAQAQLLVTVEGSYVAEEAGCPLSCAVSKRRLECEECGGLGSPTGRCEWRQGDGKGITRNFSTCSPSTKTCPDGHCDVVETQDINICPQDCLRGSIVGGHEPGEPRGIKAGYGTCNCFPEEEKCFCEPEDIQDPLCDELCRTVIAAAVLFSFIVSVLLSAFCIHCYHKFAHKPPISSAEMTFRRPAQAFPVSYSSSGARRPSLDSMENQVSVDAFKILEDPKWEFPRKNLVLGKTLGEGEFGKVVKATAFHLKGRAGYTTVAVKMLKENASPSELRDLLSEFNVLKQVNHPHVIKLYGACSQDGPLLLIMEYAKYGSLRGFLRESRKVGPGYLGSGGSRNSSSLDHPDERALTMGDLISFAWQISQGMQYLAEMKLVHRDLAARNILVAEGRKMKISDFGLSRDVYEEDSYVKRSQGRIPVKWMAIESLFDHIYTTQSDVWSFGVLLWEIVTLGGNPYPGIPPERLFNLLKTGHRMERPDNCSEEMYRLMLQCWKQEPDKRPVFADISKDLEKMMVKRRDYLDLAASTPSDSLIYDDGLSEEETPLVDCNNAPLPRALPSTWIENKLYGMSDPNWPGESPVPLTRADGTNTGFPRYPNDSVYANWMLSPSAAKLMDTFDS
compound,measurement,setting,value
CCN1CCN(c2ccc(Nc3cc(Nc4cccc5c4N(C(C)=O)CC5)ccn3)cc2)CC1 [Compound 1938],% Displacement Point 1,FGFR1 V561M,8%
same,% Displacement Point 2,FGFR1 V561M,8.43%
same,% Displacement mean,FGFR1 V561M,8%
same,% Displacement Point 1,CDK2/cyclin E1,3%
same,% Displacement Point 2,CDK2/cyclin E1,-14%
same,% Displacement mean,CDK2/cyclin E1,-5.56%
same,% Displacement Point 1,STK17A (DRAK1),2.26%
same,% Displacement Point 2,STK17A (DRAK1),10%
same,% Displacement mean,STK17A (DRAK1),6.32%
same,% Displacement Point 1,RET V804M,1.24%
same,% Displacement Point 2,RET V804M,-3%
same,% Displacement mean,RET V804M,-0.94%
same,% Displacement Point 1,TNIK,23%
same,% Displacement Point 2,TNIK,25%
same,% Displacement mean,TNIK,24%
same,% Displacement Point 1,MAP4K3 (GLK),-1.29%
same,% Displacement Point 2,MAP4K3 (GLK),0.495%
same,% Displacement mean,MAP4K3 (GLK),-0.396%
